# Measurements taken from patent publication US20110245242A1, “Heterocyclically Substituted Anilinopyrimides” (Bayer CropScience AG, priority 2008, published 2011).
# Experiment: log P by HPLC on reversed-phase columns (C 18), method [a], acidic range pH 2.3
# Assay type: physicochemical
# Details: pH 2.3
# Method: The log P values were measured in accordance with EEC Directive 79/831 Annex V.A8 by HPLC (High Performance Liquid Chromatography) on reversed-phase columns (C 18) using the methods below: [a] The determination was carried out in the acidic range at pH 2.3 using the mobile phases 0.1% aqueous phosphoric acid and acetronitrile linear gradient from 10% acetonitrile to 95% acetronitrile.
SMILES,log P (pH 2.3),log p
CC1CCN(c2cccc(Nc3ncc(Cl)c(NC4CC4)n3)c2)C1=O (stereo not shown) [Example 26],,1.76[a]
CCC1COC(=O)N1c1cccc(Nc2ncc(Br)c(NC3CC3)n2)c1 (stereo not shown) [Example 32],,2.01[a]
CC(C)C1COC(=O)N1c1cccc(Nc2ncc(Cl)c(NC3CC3)n2)c1 (stereo not shown) [Example 39],,2.13[a]
CC(C)CC1COC(=O)N1c1cccc(Nc2ncc(Br)c(NC3CC3)n2)c1 (stereo not shown) [Example 48],,2.69[a]
O=C1CCCCCN1c1cccc(Nc2ncc(Br)c(NC3CC3)n2)c1 [Example 54],,1.82[a]
CC1COC(=O)N1c1cccc(Nc2ncc(Cl)c(NC3CCC3)n2)c1 (stereo not shown) [Example 57],,1.81[a]
C[C@@H]1COC(=O)N1c1cccc(Nc2ncc(Cl)c(NC3CC3)n2)c1 [Example 103],,1.8[a]
CC(C)[C@H]1COC(=O)N1c1cccc(Nc2ncc(Cl)c(N(C)C3CC3)n2)c1 [Example 115],,3.09[a]

# The remaining lines, values ahead:
log P (pH 2.3),log p,SMILES
0.96,,CCC1CC(C)C(=O)N1 (stereo not shown) [5-Ethyl-3-methylpyrrolidin-2-one]
,1.53[a],COCC(C)Nc1nc(Nc2cccc(N3CCCC3=O)c2)ncc1Cl (stereo not shown) [Example 2]
,1.65[a],CCC(C)Nc1nc(Nc2ccc(N3CCCC3=O)cc2)ncc1Cl (stereo not shown) [Example 7]
,1.05[a],CNc1nc(Nc2cccc(N3CCCC3=O)c2)ncc1Cl [Example 38]
,2.24[a],CC(C)C1COC(=O)N1c1cccc(Nc2ncc(Br)c(NC3CC3)n2)c1 (stereo not shown) [Example 45]
,2.41[a],CC(C)C1COC(=O)N1c1cccc(Nc2ncc(Cl)c(NC3CCC3)n2)c1 (stereo not shown) [Example 46]
,2.54[a],CC(C)CC1COC(=O)N1c1cccc(Nc2ncc(Cl)c(NC3CC3)n2)c1 (stereo not shown) [Example 47]
,2.83[a],CC(C)CC1COC(=O)N1c1cccc(Nc2ncc(Cl)c(NC3CCC3)n2)c1 (stereo not shown) [Example 49]
,3.05[a],CC(C)CC1COC(=O)N1c1cccc(Nc2ncc(Br)c(NC3CCC3)n2)c1 (stereo not shown) [Example 50]
,1.7[a],O=C1CCCCCN1c1cccc(Nc2ncc(Cl)c(NC3CC3)n2)c1 [Example 55]
,1.29[a],O=C1CCCCN1c1cccc(Nc2ncc(F)c(NC3CCC3)n2)c1 [Example 58]
,0.98[a],O=C1CCC(CO)N1c1cccc(Nc2ncc(Cl)c(NC3CC3)n2)c1 (stereo not shown) [Example 86]
,2.1[a],O=C1CCC(c2ccccc2)N1c1cccc(Nc2ncc(Cl)c(NC3CC3)n2)c1 (stereo not shown) [Example 87]
,1.56[a],C[C@@H]1COC(=O)N1c1cccc(Nc2ncc(Cl)c(NC3CCC3)n2)c1 [Example 102]
,2.42[a],CCC1=C(C)CN(c2cccc(Nc3ncc(Br)c(NC4CC4)n3)c2)C1=O [Example 232]

# Same assay, conditions: pH 2.3, log P (pH 2.3)
row,SMILES,chromatographic logP
1,O=C1CCCN1c1cc([N+](=O)[O-])ccc1F [1-(2-Fluoro-5-nitrophenyl)pyrrolidin-2-one],1.47
2,"Nc1cc(N2C(=O)CCC2=O)ccc1Cl [1-(3-Amino-4-chlorophenyl)pyrrolidine-2,5-dione]",0.79
3,COc1cc(N)cc(N2CCCC2=O)c1 [1-(3-Amino-5-methoxyphenyl)pyrrolidin-2-one],0.6
4,"CC1(C)CC(=O)N(c2cccc(N)c2)C1=O [1-(3-Aminophenyl)-3,3-dimethylpyrrolidine-2,5-dione]",0.86
5,Nc1cccc(N2C(=O)CCC2C(F)(F)F)c1 (stereo not shown) [1-(3-Aminophenyl)-5-(trifluoromethyl)pyrrolidin-2-one],1.07
6,CCC1CC(C)C(=O)N1c1cccc(N)c1 (stereo not shown) [1-(3-Aminophenyl)-5-ethyl-3-methylpyrrolidin-2-one],1.31
7,CCC1CCC(=O)N1c1cccc(N)c1 (stereo not shown) [1-(3-Aminophenyl)-5-ethylpyrrolidin-2-one],0.94
8,CC1CCC(=O)N1c1cccc(N)c1 (stereo not shown) [1-(3-Aminophenyl)-5-methylpyrrolidin-2-one],0.52
9,COc1cc(N2CCCC2=O)cc([N+](=O)[O-])c1 [1-(3-Methoxy-5-nitrophenyl)pyrrolidin-2-one],1.99
10,Nc1ccc(F)c(N2CCCC2=O)c1 [1-(5-Amino-2-fluorophenyl)pyrrolidin-2-one],0.31
11,"CC1(C)CC(=O)N(c2cccc([N+](=O)[O-])c2)C1=O [3,3-Dimethyl-1-(3-nitrophenyl)pyrrolidine-2,5-dione]",2.01
12,"Nc1cccc(N2CCOC2=O)c1 [3-(3-Aminophenyl)-1,3-oxazolidin-2-one]",-0.18
13,"CC1CN(c2cccc(N)c2)C(=O)O1 (stereo not shown) [3-(3-Aminophenyl)-5-methyl-1,3-oxazolidin-2-one]",0.33
14,CC1CCN(Cc2cccc([N+](=O)[O-])c2)C1=O (stereo not shown) [3-Methyl-1-(3-nitrobenzyl)pyrrolidin-2-one],1.82

# Continued, values first:
row,chromatographic logP,SMILES
1,2.46,COc1cc(NC(=O)CCCCl)cc([N+](=O)[O-])c1 [4-Chloro-N-(3-methoxy-5-nitrophenyl)butanamide]
2,2.73,"Clc1cnc(Nc2ccc(I)cc2)nc1NC1CC1 [5-Chloro-N^4-cyclopropyl-N^2-(4-iodophenyl)pyrimidine-2,4-diamine]"
3,1.02,CCC1CC(C)C(=O)N1 (stereo not shown) [5-Ethyl-3-methylpyrrolidin-2-one]
4,1.18,"CC(C)[C@@H]1COC(=O)N1c1cccc(N)c1 [(4R)-3-(3-Aminophenyl)-4-isopropyl-1,3-oxazolidin-2-one]"
5,0.27,"C[C@@H]1COC(=O)N1c1cccc(N)c1 [(4R)-3-(3-Aminophenyl)-4-methyl-1,3-oxazolidin-2-one]"
6,0.84,CCOC(=O)[C@@H]1CCC(=O)N1c1cccc(N)c1 [Ethyl 1-(3-aminophenyl)-5-oxo-L-prolinate]
7,1.96,"FC(F)CNc1nc(Cl)ncc1Cl [Example V-2, 2,5-Dichloro-N-(2,2-difluoroethyl)pyrimidin-4-amine]"

# Experiment: log P by LC-MS, method [b], acid range pH 2.7
# Assay type: physicochemical
# Details: pH 2.7
# Method: The log P values were measured in accordance with EEC Directive 79/831 Annex V.A8 by HPLC (High Performance Liquid Chromatography) on reversed-phase columns (C 18) using the methods below:
# [b] The LC-MS determination in the acid range was carried out at pH 2.7 using the mobile phases 0.1% aqueous formic acid and acetonitrile (contains 0.1% formic acid)
# linear gradient from 10% acetonitrile to 95% acetonitrile.
row,SMILES,log p
1,CC1COC(=O)N1c1cccc(Nc2ncc(Cl)c(N(C)C3CC3)n2)c1 (stereo not shown) [Example 176],2.29[b]
2,CC1COC(=O)N1c1ccc(Nc2ncc(Cl)c(N(C)C3CC3)n2)cc1 (stereo not shown) [Example 179],2.16[b]
3,CC1CCC(=O)N1c1cccc(Nc2ncc(Cl)c(N(C)C3CC3)n2)c1 (stereo not shown) [Example 180],2.26[b]
4,CC1CC(=O)N(c2cccc(Nc3ncc(Cl)c(N(C)C4CC4)n3)c2)C1=O (stereo not shown) [Example 182],2.21[b]
5,CC1(C)CC(=O)N(c2cccc(Nc3ncc(C(F)(F)F)c(NC4CCC4)n3)c2)C1=O [Example 192],3.03[b]
6,CN1CCN(c2cccc(Nc3ncc(C(F)(F)F)c(NC4CC4)n3)c2)C1=O [Example 293],2.22[b]
7,CN1CCN(c2cccc(Nc3ncc(I)c(NC4CC4)n3)c2)C1=O [Example 296],1.57[b]
8,O=C1CCCN1c1cccc(Nc2ncc(C(F)(F)F)c(NC3CCCC3)n2)c1 [Example 303],3.04[b]

# The next lines start with the values.
row,log p,SMILES
1,1.73[b],O=C1COCCN1c1cccc(Nc2ncc(Cl)c(NCC(F)(F)F)n2)c1 [Example 173]
2,2.16[b],CC1CCC(=O)N1c1cccc(Nc2ncc(Cl)c(NCC(F)(F)F)n2)c1 (stereo not shown) [Example 174]
3,2.01[b],O=C1OCCN1c1cccc(Nc2ncc(Cl)c(NCC(F)(F)F)n2)c1 [Example 175]
4,1.71[b],COCC(C)Nc1nc(Nc2cccc(N3C(=O)OC[C@H]3C)c2)ncc1Br (stereo partly shown) [Example 183]
5,3.24[b],C[C@@H]1C[C@H](C)N(c2cccc(Nc3ncc(Br)c(NCC(F)F)n3)c2)C1=O [Example 189]
6,2.41[b],O=C1CCCN1c1cc(Nc2ncc(C(F)(F)F)c(NCC3CC3)n2)ccc1F [Example 201]
7,1.67[b],CC1CC1Nc1nc(Nc2cccc(N3CCOC3=O)c2)ncc1Cl (stereo not shown) [Example 205]
8,1.71[b],O=c1ccccn1-c1cccc(Nc2ncc(Br)c(NC3CCC3)n2)c1 [Example 221]
9,1.67[b],O=C1CCCN1c1cccc(Nc2ncc(Cl)c(N3CCCC3)n2)c1 [Example 222]
10,1.99[b],CCC1CC1Nc1nc(Nc2cccc(N3CCCC3=O)c2)ncc1Cl (stereo not shown) [Example 242]
11,2.75[b],CCC1CCC(=O)N1c1cccc(Nc2ncc(C(F)(F)F)c(NC3CC3)n2)c1 (stereo not shown) [Example 255]
12,1.92[b],O=C1N(CCCl)CCN1c1cccc(Nc2ncc(Br)c(NC3CC3)n2)c1 [Example 285]
13,1.82[b],O=C1N(CCCl)CCN1c1cccc(Nc2ncc(Cl)c(NC3CC3)n2)c1 [Example 286]
14,1.86[b],CC1CC(Nc2nc(Nc3cccc(N4C(=O)CCC4=O)c3)ncc2Br)C1 (stereo not shown) [Example 288]
15,2[b],CC1CC(Nc2nc(Nc3cccc(N4CCN(C)C4=O)c3)ncc2Br)C1 (stereo not shown) [Example 290]
16,2.66[b],CC1CC(Nc2nc(Nc3cccc(N4C(=O)C(C)CC4C)c3)ncc2Br)C1 (stereo not shown) [Example 291]
17,2.48[b],CC(CF)Nc1nc(Nc2cccc(N3CCCC3=O)c2)ncc1C(F)(F)F (stereo not shown) [Example 298]
18,1.49[b],CCCNc1nc(Nc2cccc(N3CCCC3=O)c2)ncc1Cl [Example 307]
19,2.17[b],CC1CC(Nc2nc(Nc3cccc(N4C(=O)CCC4C)c3)ncc2Br)C1 (stereo not shown) [Example 317]
20,3.56[b],CN(c1nc(Nc2cccc(N3CCCC3=O)c2)ncc1C(F)(F)F)C1CCCC1 [Example 319]
21,3.29[b],O=C1CCCN1c1cccc(Nc2ncc(C(F)(F)F)c(N3CCCCC3)n2)c1 [Example 320]
22,3.04[b],CC1(C)CC1Nc1nc(Nc2cccc(N3CCCC3=O)c2)ncc1C(F)(F)F (stereo not shown) [Example 321]
23,1.84[b],O=C1CCCN1c1cccc(Nc2ncc(C(F)(F)F)c(NC3COC3)n2)c1 [Example 322]
24,1.63[b],CNc1nc(Nc2cccc(N3CCCC3=O)c2)ncc1C(F)(F)F [Example 323]
